For the experiment, the system named is DMS 114 tumor spheroids, viability % test/control. The experiment in a line: Anticancer human tumor DMS 114 cell line growth inhibition.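 As to all read-outs here: spheroids exposed to compounds for 7 days before read-out.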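 As to viability, T/C: luminescence used as a proxy for viable cells.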 The note with it: spheroids with HUVEC and MSC; for viability, T/C: stronger effect = lower value. The gist of the method: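 Complex spheroids of malignant cells with endothelial cells and mesenchymal stem cells; agents alone or combined, from near clinical Cmax (or 10 microM if unknown) down in half-log steps, 0.25% DMSO final.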

From PubChem BioAssay AID1845202 (Molecular Pharmacology Branch, DTP, NCI, 2023) come the findings set out here.

Each structure is given as a SMILES string. “And” between values parts separate entries of the source, which are not always exact repeats. Equal entries are not always repeated.

What is called IC50 is the midpoint of a concentration-inhibition curve. A word on the viability, T/C: it is the result in the treated group divided by that in the control group, in per cent. On to `CC(C)n1c(=O)n(C)c2cnc3cc(F)c(-c4ccc(OCCCN5CCCCC5)nc4)cc3c21` + Cn1nnc2c(C(N)=O)ncn2c1=O, for which the half-inhibitory concentration (IC50) reads like this: (curve of first compound, second compound 1 µM) 6.43 µM; (curve of first compound, second compound 3.16 µM) 7.31 µM; (curve of first compound, second compound 10 µM) 6.55 µM; (curve of first compound, second compound 31.6 µM) 6.08 µM; (curve of first compound, second compound 100 µM) 4.32 µM. Further, the viability, T/C (second compound 1 µM, first compound 0.0316 µM) was 95.4%; the viability, T/C (second compound 1 µM, first compound 0.1 µM) is 100%; the viability, T/C (second compound 1 µM, first compound 0.316 µM) was 101%; the viability, T/C (second compound 1 µM, first compound 1 µM) was 98.9%; the viability, T/C (second compound 1 µM, first compound 3.16 µM) is 75.4%; the viability, T/C (second compound 1 µM, first compound 10 µM) is 34.2%. Also, the viability, T/C reads like this: (second compound 3.16 µM, first compound 0.0316 µM) 104%; (second compound 3.16 µM, first compound 0.1 µM) 105%; (second compound 3.16 µM, first compound 0.316 µM) 104%; (second compound 3.16 µM, first compound 1 µM) 106%; (second compound 3.16 µM, first compound 3.16 µM) 94.8%; (second compound 3.16 µM, first compound 10 µM) 32.9%. Moreover, the viability, T/C is, setting by setting: (second compound 10 µM, first compound 0.0316 µM) 103%; (second compound 10 µM, first compound 0.1 µM) 111%; (second compound 10 µM, first compound 0.316 µM) 105%; (second compound 10 µM, first compound 1 µM) 93.5%; (second compound 10 µM, first compound 3.16 µM) 79%; (second compound 10 µM, first compound 10 µM) 33.4%. In addition, the viability, T/C reads like this: (second compound 31.6 µM, first compound 0.0316 µM) 99.6%; (second compound 31.6 µM, first compound 0.1 µM) 96%; (second compound 31.6 µM, first compound 0.316 µM) 101%; (second compound 31.6 µM, first compound 1 µM) 95.3%; (second compound 31.6 µM, first compound 3.16 µM) 71.2%; (second compound 31.6 µM, first compound 10 µM) 33.8%. Further, the viability, T/C reads like this: (second compound 100 µM, first compound 0.0316 µM) 85.8%; (second compound 100 µM, first compound 0.1 µM) 81.6%; (second compound 100 µM, first compound 0.316 µM) 82.9%; (second compound 100 µM, first compound 1 µM) 84.8%; (second compound 100 µM, first compound 3.16 µM) 58.8%; (second compound 100 µM, first compound 10 µM) 26.5%.
On to `CNCc1ccc(-c2cc(-c3nc(-c4ccc(S(=O)(=O)C(C)C)cc4)cnc3N)on2)cc1` + COc1cc2c(cc1O)CCNC21CSC2c3c(OC(C)=O)c(C)c4c(c3C(COC1=O)N1C(O)C3Cc5cc(C)c(OC)c(O)c5C(C21)N3C)OCO4, for which the IC50 was 0.115 µM (curve of first compound, second compound 30 pM); 0.065 µM (curve of first compound, second compound 94.9 pM); < 0.00949 µM (curve of first compound, second compound 0.0003 µM); < 0.00949 µM (curve of first compound, second compound 0.000949 µM); < 0.00949 µM (curve of first compound, second compound 0.003 µM). The viability, T/C runs as follows: (second compound 30 pM, first compound 0.00949 µM) 96.4%; (second compound 30 pM, first compound 0.03 µM) 94.3%; (second compound 30 pM, first compound 0.0949 µM) 53.1%; (second compound 30 pM, first compound 0.3 µM) 20.8%; (second compound 30 pM, first compound 0.949 µM) 2.84%; (second compound 30 pM, first compound 3 µM) 0.19%. Further, the viability, T/C (second compound 94.9 pM, first compound 0.00949 µM) was 93.9%; the viability, T/C (second compound 94.9 pM, first compound 0.03 µM) is 70.5%; the viability, T/C (second compound 94.9 pM, first compound 0.0949 µM) was 41.3%; the viability, T/C (second compound 94.9 pM, first compound 0.3 µM) was 12.2%; the viability, T/C (second compound 94.9 pM, first compound 0.949 µM) is 2.28%; the viability, T/C (second compound 94.9 pM, first compound 3 µM) was 0.17%. The viability, T/C is, setting by setting: (second compound 0.0003 µM, first compound 0.00949 µM) 38.6%; (second compound 0.0003 µM, first compound 0.03 µM) 28.3%; (second compound 0.0003 µM, first compound 0.0949 µM) 17.8%; (second compound 0.0003 µM, first compound 0.3 µM) 11.7%; (second compound 0.0003 µM, first compound 0.949 µM) 1.89%; (second compound 0.0003 µM, first compound 3 µM) 0.25%. Further, the viability, T/C was 4.46% (second compound 0.000949 µM, first compound 0.00949 µM); 4.77% (second compound 0.000949 µM, first compound 0.03 µM); 3.57% (second compound 0.000949 µM, first compound 0.0949 µM); 3.71% (second compound 0.000949 µM, first compound 0.3 µM); 0.67% (second compound 0.000949 µM, first compound 0.949 µM); 0.15% (second compound 0.000949 µM, first compound 3 µM). Further, the viability, T/C is 0.28% (second compound 0.003 µM, first compound 0.00949 µM); 0.28% (second compound 0.003 µM, first compound 0.03 µM); 0.31% (second compound 0.003 µM, first compound 0.0949 µM); 0.26% (second compound 0.003 µM, first compound 0.3 µM); 0.23% (second compound 0.003 µM, first compound 0.949 µM); 0.25% (second compound 0.003 µM, first compound 3 µM).
In the case of `CNCc1ccc(-c2cc(-c3nc(-c4ccc(S(=O)(=O)C(C)C)cc4)cnc3N)on2)cc1`, the viability, T/C reads like this: (compound 0.00949 µM) 93% and 107% and 91.3%; (compound 0.03 µM) 96.8% and 102% and 94%; (compound 0.0949 µM) 88.2% and 77.7% and 80.8%; (compound 0.3 µM) 34.7% and 25.9% and 27.3%; (compound 0.949 µM) 3.27% and 5.9% and 2.77%; (compound 3 µM) 0.32% and 0.23% and 0.26%. The IC50 (curve of compound) is 0.216 µM and 0.176 µM and 0.184 µM.
Take `COc1ccc([C@@H](O)c2cc(-c3ncnc4cc(N5CCOCC5)ccc34)c(F)cc2Cl)nn1`: the viability, T/C is, setting by setting: (compound 0.0316 µM) 98.5% and 111% and 96.3%; (compound 0.1 µM) 100% and 104% and 105%; (compound 0.316 µM) 98% and 103% and 108%; (compound 1 µM) 98.8% and 121% and 100%; (compound 3.16 µM) 81.9% and 95.8% and 92.8%; (compound 10 µM) 40.5% and 46.1% and 35.6%. Moreover, the IC50 (curve of compound) is 7.8 µM and 9.15 µM and 7.49 µM.
